US4021434A, “Sodium β-[2,6-dimethyl-3,5-bis(ethoxycarbonyl)-4-(3-nitrophenyl)-1,4-dihyd ropyridine-1-yl]ethyl sulfate” (Yamanouchi Pharmaceutical Co., Ltd., priority 1972, dated 1977)

What was measured:
cerebral circulation = assay: Effect on cerebral circulation in dogs anesthetized by chloralose-urethane (Experiment 1, Table I); format: in vivo
mice = assay: in vivo; format: in vivo
[1] = system: vertebral blood flow and coronary blood flow; assay: Effects on mean blood pressure, vertebral blood flow and coronary blood flow, intravenous, dogs anesthetized with pentobarbital (Experiment 3, Table 3); format: in vivo
Experimental: Effects on mean blood pressure (hereinafter referred to as MBP), vertebral blood flow (hereinafter referred to as VBF) and coronary blood flow (hereinafter referred to as Cor.BF), when administered intravenously:
By using dogs anesthetized with pentobarbital, VBF and Cor. BF were measured with an electromagnetic flowmeter. Blood pressure at the femoral artery was measured.

[2] = system: hypertensive action of norepinephrine; assay: Antagonism against hypertensive action of norepinephrine, intra-duodenal administration (Experiment 4, Table 5); format: in vivo, dogs
Experimental: Drugs were administered intra-duodenally.

[3] = system: partial oxygen pressure in coronary venous blood; assay: Effects on MBP and partial oxygen pressure (PO2) in coronary venous blood, intra-duodenal administration (Experiment 4, Table 4)
Experimental: (§1) Antagonism against hypertensive action of norepinephrine and effects on MBP and partial oxygen pressure (referred to hereinafter as PO2) in coronary venous blood, in case of intra-duodenal administration:
(§2) By using dogs anesthetized by pentobarbital, blood pressure at the femoral artery was measured. […] Antagonism against hypertensive active in case of norepinephrine administration (3g/kg i.v.) was investigated also. Drugs were administered intra-duodenally.

[4] = as above
Experimental: as §1, §2

in vivo = format: in vivo; settings: mouse, in vivo, mice
physchem = settings: water
[5] = 1 mg/kg i.d., 1/2 hour post-administration
[6] = 1 mg/kg i.d., 1 hour post-administration
[7] = 1 mg/kg i.d., 2 hour post-administration
[8] = 1 mg/kg i.d., 3 hour post-administration
[9] = 1 mg/kg i.d., 5 hour post-administration
[10] = 1 mg/kg i.d., 8 hour post-administration
[11] = 1 mg/kg i.d., Pre-administration (baseline)
[12] = 10 mg/kg i.d., 1/2 hour post-administration
[13] = 10 mg/kg i.d., 1 hour post-administration
[14] = 10 mg/kg i.d., 2 hour post-administration
[15] = 10 mg/kg i.d., 3 hour post-administration
[16] = 10 mg/kg i.d., 5 hour post-administration
[17] = 10 mg/kg i.d., 8 hour post-administration
[18] = 10 mg/kg i.d., Pre-administration (baseline)

Which results are given for CCOCN1C(C)=C(C(=O)OCC)C(c2cccc([N+](=O)[O-])c2)C(C(=O)OCC)=C1C [A, diethyl 1-ethoxymethyl-2,6-dimethyl-4-(3-nitrophenyl)-1,4-dihydropyridine-3,5-dicarboxylate]?
Carotid blood flow Duration (cerebral circulation; 0.1 mg/Kg i.v.): 120 min; Carotid blood flow Increase (cerebral circulation; 0.1 mg/Kg i.v.): 80%; Mean Blood Pressure Decrease (cerebral circulation; 0.1 mg/Kg i.v.): 9%; Regional Cerebral blood flow Duration (cerebral circulation; 0.1 mg/Kg i.v.): 120 min; Regional Cerebral blood flow Increase (cerebral circulation; 0.1 mg/Kg i.v.): 8.6 μV; Vertebral Blood Flow Increase (cerebral circulation; 0.1 mg/Kg i.v.): 120%; Vertebral blood flow Duration (cerebral circulation; 0.1 mg/Kg i.v.): 100 min; MLD (Minimum lethal dose) (mice; i.p.): > 3000 mg/kg; MLD (Minimum lethal dose) (mice; p.o.): > 5000 mg/kg

Which “water-solubility (in words)” value (Water-solubility) does the source give for CCOC(=O)C1=C(C)NC(C)=C(C(=O)OCC)C1c1cccc([N+](=O)[O-])c1 [B] here?
Its value is “almost unsoluble in water”.

And the “Coronary Blood Flow Duration” value ([1]; 0.001 mg/kg i.v.)?
The value was 5 min.

What about the “Coronary Blood Flow Increase” value ([1]; 0.001 mg/kg i.v.) of the same compound?
The value was 58 Δ%.

What about the “Mean Blood Pressure Decrease” value ([1]; 0.001 mg/kg i.v.) of the same compound?
Its value is -15 ΔmmHg.

And the “Vertebral Blood Flow Increase” value ([1]; 0.001 mg/kg i.v.)?
Its value is 20 Δ%.

And the “Coronary Blood Flow Duration” value ([1]; 0.01 mg/kg i.v.)?
Its value is 30 min.

And the “Coronary Blood Flow Increase” value ([1]; 0.01 mg/kg i.v.)?
Its value is 141 Δ%.

What about the “Mean Blood Pressure Decrease” value ([1]; 0.01 mg/kg i.v.) of the same compound?
The value was -35 ΔmmHg.

And the “Vertebral Blood Flow Increase” value ([1]; 0.01 mg/kg i.v.)?
The value was 144 Δ%.

And the “Percent inhibition against increase of blood pressure caused by norepinephrin” value (from here on “Percent inhibition against increase”) [2, 5]?
Its value is 79%.

And the “Percent inhibition against increase” value [2, 6]?
Its value is 78%.

What about the “Percent inhibition against increase” value [2, 7] of the same compound?
Its value is 79%.

What about the “Percent inhibition against increase” value [2, 8] of the same compound?
Its value is 77%.

What about the “Percent inhibition against increase” value [2, 9] of the same compound?
Its value is 63%.

What about the “Percent inhibition against increase” value [2, 10] of the same compound?
The value was 48%.

And the “PO2 in coronary venous blood” value [3, 5]?
The value was 34.6.

What about the “PO2 in coronary venous blood” value [3, 6] of the same compound?
The value was 37.7.

And the “PO2 in coronary venous blood” value [3, 7]?
The value was 39.3.

What about the “PO2 in coronary venous blood” value [3, 8] of the same compound?
The value was 38.9.

What about the “PO2 in coronary venous blood” value [3, 9] of the same compound?
The value was 32.7.

What about the “PO2 in coronary venous blood” value [3, 10] of the same compound?
The value was 25.0.

What about the “PO2 in coronary venous blood” value [3, 11] of the same compound?
Its value is 17.4.

And the MBP [4, 11]?
Its MBP is 101.

And the MBP ([4]; 1 mg/kg i.d., change, 1/2 hour post-administration)?
Its MBP is -39.

And the MBP ([4]; 1 mg/kg i.d., change, 1 hour post-administration)?
Its MBP is -43.

And the MBP ([4]; 1 mg/kg i.d., change, 2 hour post-administration)?
The MBP was -42.

What about the MBP ([4]; 1 mg/kg i.d., change, 3 hour post-administration) of the same compound?
Its MBP is -32.

What about the MBP ([4]; 1 mg/kg i.d., change, 5 hour post-administration) of the same compound?
The MBP was -27.

And the MBP ([4]; 1 mg/kg i.d., change, 8 hour post-administration)?
Its MBP is -12.

What about the “Carotid blood flow Duration” value (cerebral circulation; 0.01 mg/Kg i.v.) of the same compound?
The value was 30 min.

What about the “Carotid blood flow Increase” value (cerebral circulation; 0.01 mg/Kg i.v.) of the same compound?
The value was 83%.

What about the “Mean Blood Pressure Decrease” value (cerebral circulation; 0.01 mg/Kg i.v.) of the same compound?
Its value is 29%.

And the “Regional Cerebral blood flow Duration” value (cerebral circulation; 0.01 mg/Kg i.v.)?
Its value is 30 min.

And the “Regional Cerebral blood flow Increase” value (cerebral circulation; 0.01 mg/Kg i.v.)?
The value was 9.2 μV.

And the “Vertebral Blood Flow Increase” value (cerebral circulation; 0.01 mg/Kg i.v.)?
Its value is 130%.

And the “Vertebral blood flow Duration” value (cerebral circulation; 0.01 mg/Kg i.v.)?
The value was 30 min.

What about the LD50 (in vivo; ip) of the same compound?
Its LD50 is 525 mg/kg.

And the LD50 (in vivo; po)?
Its LD50 is 5000 mg/kg.

With COC(=O)C1=C(C)NC(C)=C(C(=O)OC)C1c1ccccc1[N+](=O)[O-] [C] as the compound, how does the “Carotid blood flow Duration” value (cerebral circulation; 0.01 mg/Kg i.v.) read?
Its value is 30 min.

And the “Carotid blood flow Increase” value (cerebral circulation; 0.01 mg/Kg i.v.)?
Its value is 90%.

What about the “Mean Blood Pressure Decrease” value (cerebral circulation; 0.01 mg/Kg i.v.) of the same compound?
The value was 28%.

What about the “Regional Cerebral blood flow Duration” value (cerebral circulation; 0.01 mg/Kg i.v.) of the same compound?
Its value is 30 min.

And the “Regional Cerebral blood flow Increase” value (cerebral circulation; 0.01 mg/Kg i.v.)?
Its value is 8.2 μV.

And the “Vertebral Blood Flow Increase” value (cerebral circulation; 0.01 mg/Kg i.v.)?
Its value is 120%.

What about the “Vertebral blood flow Duration” value (cerebral circulation; 0.01 mg/Kg i.v.) of the same compound?
The value was 30 min.

Which results are given for CCOC(=O)C1=C(C)N(CCOS(=O)(=O)[O-])C(C)=C(C(=O)OCC)C1c1cccc([N+](=O)[O-])c1.[Na+] [D, sodium β-[2,6-dimethyl-3,5-bis(ethoxycarbonyl)-4-(3-nitrophenyl)-1,4-dihydropyridine-1-yl]-ethyl sulfate]?
solubility (physchem): ~400 mg/mL; water-solubility (in words) (Water-solubility): excellent water-solubility; Coronary Blood Flow Duration ([1]; 0.1 mg/kg i.v.): 20 min; Coronary Blood Flow Increase ([1]; 0.1 mg/kg i.v.): 67 Δ%; Mean Blood Pressure Decrease ([1]; 0.1 mg/kg i.v.): -5 ΔmmHg; Vertebral Blood Flow Increase ([1]; 0.1 mg/kg i.v.): 21 Δ%; Coronary Blood Flow Duration ([1]; 0.3 mg/kg i.v.): 60 min; Coronary Blood Flow Increase ([1]; 0.3 mg/kg i.v.): 72 Δ%; Mean Blood Pressure Decrease ([1]; 0.3 mg/kg i.v.): -12 ΔmmHg; Vertebral Blood Flow Increase ([1]; 0.3 mg/kg i.v.): 75 Δ%; Coronary Blood Flow Duration ([1]; 1 mg/kg i.v.): ≥ 120 min; Coronary Blood Flow Increase ([1]; 1 mg/kg i.v.): 137 Δ%; Mean Blood Pressure Decrease ([1]; 1 mg/kg i.v.): -35 ΔmmHg; Vertebral Blood Flow Increase ([1]; 1 mg/kg i.v.): 169 Δ%; effects on cerebral and coronary blood flow and blood pressure (in words) ([1]; administered intravenously): excellent effects as increasing the cerebral blood flow and coronary blood flow and at the same time showed hypotensive activity; duration of activities (in words) ([1]; administered intravenously, compared with known compounds): prolonged for a long period of time when compared with known compounds; Percent inhibition against increase of blood pressure caused by norepinephrin [2, 12]: 69%; Percent inhibition against increase of blood pressure caused by norepinephrin [2, 13]: 84%; Percent inhibition against increase of blood pressure caused by norepinephrin [2, 14]: 89%; Percent inhibition against increase of blood pressure caused by norepinephrin [2, 15]: 89%; Percent inhibition against increase of blood pressure caused by norepinephrin [2, 16]: 85%; Percent inhibition against increase of blood pressure caused by norepinephrin [2, 17]: 79%; PO2 in coronary venous blood [3, 12]: 34.7; PO2 in coronary venous blood [3, 13]: 37.2; PO2 in coronary venous blood [3, 14]: 39.7; PO2 in coronary venous blood [3, 15]: 43.3; PO2 in coronary venous blood [3, 16]: 43.2; PO2 in coronary venous blood [3, 17]: 40.0; PO2 in coronary venous blood [3, 18]: 17.8; duration time ([3]; compared with compounds B or C): much longer than those of compounds B or C; absorption in case of peroral administration ([3]; peroral (intra-duodenal), compared with compounds B or C): more easily absorbed than compounds B or C; MBP [4, 18]: 110; MBP ([4]; 10 mg/kg i.d., change, 1/2 hour post-administration): -11; MBP ([4]; 10 mg/kg i.d., change, 1 hour post-administration): -21; MBP ([4]; 10 mg/kg i.d., change, 2 hour post-administration): -32; MBP ([4]; 10 mg/kg i.d., change, 3 hour post-administration): -43; MBP ([4]; 10 mg/kg i.d., change, 5 hour post-administration): -4.3; MBP ([4]; 10 mg/kg i.d., change, 8 hour post-administration): -40

For CCOC(=O)C1=C(C)NC(C)=C(C(=O)OCC)C1c1ccccc1C(F)(F)F [E, 3,5-Dicarboethoxy-1,4-dihydro-2,6-dimethyl-4-(2-trifluoromethylphenyl)pyridine], which “Coronary Blood Flow Duration” value ([1]; 0.001 mg/kg i.v.) is on record?
The value was 10 min.

What about the “Mean Blood Pressure Decrease” value ([1]; 0.001 mg/kg i.v.) of the same compound?
The value was -16 ΔmmHg.

What about the “Vertebral Blood Flow Increase” value ([1]; 0.001 mg/kg i.v.) of the same compound?
Its value is 74 Δ%.

What about the “Coronary Blood Flow Duration” value ([1]; 0.01 mg/kg i.v.) of the same compound?
Its value is 45 min.

What about the “Mean Blood Pressure Decrease” value ([1]; 0.01 mg/kg i.v.) of the same compound?
Its value is -44 ΔmmHg.

What about the “Vertebral Blood Flow Increase” value ([1]; 0.01 mg/kg i.v.) of the same compound?
Its value is 144 Δ%.

With COc1ccc(Cc2nccc3cc(OC)c(OC)cc23)cc1OC [Papaverine] as the compound, how does the “Carotid blood flow Duration” value (cerebral circulation; 1.0 mg/Kg i.v.) read?
The value was 6 min.

And the “Carotid blood flow Increase” value (cerebral circulation; 1.0 mg/Kg i.v.)?
The value was 120%.

What about the “Mean Blood Pressure Decrease” value (cerebral circulation; 1.0 mg/Kg i.v.) of the same compound?
The value was 18%.

And the “Regional Cerebral blood flow Duration” value (cerebral circulation; 1.0 mg/Kg i.v.)?
Its value is 7 min.

And the “Regional Cerebral blood flow Increase” value (cerebral circulation; 1.0 mg/Kg i.v.)?
Its value is 8.2 μV.

And the “Vertebral Blood Flow Increase” value (cerebral circulation; 1.0 mg/Kg i.v.)?
The value was 120%.

And the “Vertebral blood flow Duration” value (cerebral circulation; 1.0 mg/Kg i.v.)?
Its value is 6 min.

Which “water-solubility (in words)” value (Water-solubility) does the source give for CCOC(=O)C1=C(C)N(CC(=O)O)C(C)=C(C(=O)OCC)C1c1cccc([N+](=O)[O-])c1 [sodium α-[3,5-bis(ethoxycarbonyl)-2,6-dimethyl-4-(3'-nitrophenyl)-1,4-dihydro-1-pyridinyl]acetate] here?
The value was “easily soluble in water”.
